Test results from patent US9879008B2, “2,3,4,6-tetra-substituted benzene-1,5-diamine derivatives, preparation method therefor and medicinal use thereof” (SHANGHAI HAIYAN PHARMACEUTICAL TECHNOLOGY CO., LTD., priority 2014, dated 2018).

Key:
A431 cell = assay: MTT cytostatic activity, A431 cell; format: cell-based; settings: Homo sapiens, A-431; MTT, 72 h; read-out: A431 cell (IC50/nM)
H1975 cell = assay: MTT cytostatic activity, H1975 cell; format: cell-based; settings: MTT; for IC50: Homo sapiens, NCI-H1975, 72 h, read-out: H1975 cell (IC50/nM); for Selective inhibitory activity against cells [IC50(A431 cell)/IC50(H1975 cell)]: ratio of cell IC50 values;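 for all read-outs here: cells in 96-well plates exposed to compound for 72 h, then given MTT for a further 4 h at 37 °C under 5% CO2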
H1975 cells = assay: ELISA assay for cell activity of EGFR T790M inhibitor, H1975 cells; settings: for Selective inhibitory activities against cell [IC50(A431 cell)/IC50(H1975 cell)]: ELISA, ratio of cell IC50 values; for IC50: Homo sapiens, NCI-H1975, 1 h, read-out: H1975 cell (IC50/nM)
wild-type EGFR kinase = molecular target: T1, wild-type EGFR kinase (Homo sapiens, UniProt P00533); assay: z-lyte inhibition test against wild-type EGFR kinase; format: biochemical; settings: 10 μM ATP, read-out: EGFR WT (IC50/nM);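 note: reaction volume 10 µL holding 0.8 ng/µL enzyme and 2 µM Tyr04 substrate, with DMSO at 2% once compounds are present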
T1 construct: purchased Invitrogen PV3872
T1 sequence (P00533 25-1210): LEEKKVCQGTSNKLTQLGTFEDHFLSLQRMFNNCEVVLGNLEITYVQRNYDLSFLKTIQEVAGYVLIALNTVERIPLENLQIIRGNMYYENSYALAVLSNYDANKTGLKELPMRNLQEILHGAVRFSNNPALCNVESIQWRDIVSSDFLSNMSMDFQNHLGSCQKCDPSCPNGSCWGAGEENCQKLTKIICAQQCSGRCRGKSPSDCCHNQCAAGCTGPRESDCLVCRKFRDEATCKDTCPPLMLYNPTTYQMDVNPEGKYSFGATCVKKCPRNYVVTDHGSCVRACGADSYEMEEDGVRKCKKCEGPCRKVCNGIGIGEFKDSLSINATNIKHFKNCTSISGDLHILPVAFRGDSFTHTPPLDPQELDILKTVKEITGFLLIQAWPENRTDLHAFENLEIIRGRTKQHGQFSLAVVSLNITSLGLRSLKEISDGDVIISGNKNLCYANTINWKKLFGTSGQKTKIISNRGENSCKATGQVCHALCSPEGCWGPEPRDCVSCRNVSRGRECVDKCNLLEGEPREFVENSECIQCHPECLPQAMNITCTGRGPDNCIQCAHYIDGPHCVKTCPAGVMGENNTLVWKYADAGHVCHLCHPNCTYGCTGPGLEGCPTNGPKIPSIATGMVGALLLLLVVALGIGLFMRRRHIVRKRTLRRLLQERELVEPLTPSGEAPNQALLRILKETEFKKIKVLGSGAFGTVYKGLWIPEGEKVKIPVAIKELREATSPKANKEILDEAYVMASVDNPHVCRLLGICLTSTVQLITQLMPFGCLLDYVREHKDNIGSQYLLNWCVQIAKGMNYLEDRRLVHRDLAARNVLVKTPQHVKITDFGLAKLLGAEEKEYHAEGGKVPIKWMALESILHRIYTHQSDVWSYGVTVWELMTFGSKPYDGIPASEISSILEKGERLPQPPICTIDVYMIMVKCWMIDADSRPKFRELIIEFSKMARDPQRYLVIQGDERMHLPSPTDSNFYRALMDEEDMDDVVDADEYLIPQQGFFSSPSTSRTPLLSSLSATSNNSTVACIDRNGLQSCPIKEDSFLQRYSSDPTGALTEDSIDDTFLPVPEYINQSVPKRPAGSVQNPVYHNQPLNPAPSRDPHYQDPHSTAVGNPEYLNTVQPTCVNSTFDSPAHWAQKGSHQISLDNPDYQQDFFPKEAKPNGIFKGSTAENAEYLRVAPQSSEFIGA

A431 cells = assay: ELISA assay for cell activity, EGF-treated A431 cells; format: cell-based; settings: Homo sapiens, A-431, compound 1 h, then EGF 45 min;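 note: Serum-starved A431 cells, ELISA on lysates read as OD450 minus OD570, inhibition scaled between EGF-stimulated wells (0%) and unstimulated cell control (100%), DMSO 0.5% final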
NIH3T3 cell = assay: MTT cytotoxicity against NIH3T3 cells; format: cell-based; settings: Mus musculus, NIH3T3; cytotoxicity, MTT, 72 h; read-out: MTT assay against NIH3T3 cell (IC50/nM)

SMILES	IC50 (A431 cell) [nM]	IC50 (H1975 cell) [nM]	Selective inhibitory activity against cells [IC50(A431 cell)/IC50(H1975 cell)] (H1975 cell)	Selective inhibitory activities against cell [IC50(A431 cell)/IC50(H1975 cell)] (H1975 cells)	IC50 (H1975 cells) [nM]	IC50 (wild-type EGFR kinase) [nM]	IC50 (A431 cells) [nM]	IC50 (NIH3T3 cell) [nM]
C=CC(=O)Nc1cc(Nc2ncc(Cl)c(OC3CCCN(S(C)(=O)=O)CC3)n2)c(OC)cc1N(C)CCN(C)C (centres unmarked) [Compound J-1, N-(5-(5-chloro-4-(1-(methylsulfonyl)azacycloheptane-4-oxy)pyrimidine-2-amino)-2-((2-(dimethylamino)ethyl)(methyl)amino)-4-methoxylphenyl)acrylamide]	1140	22	52	29.5	13	20	383	> 10000
C=CC(=O)Nc1cc(Nc2nccc(OC3CN(S(=O)(=O)c4ccccc4)C3)n2)c(OC)cc1N(C)CCN(C)C [Compound J-7, N-(2-((2-(dimethylamino)ethyl)(methyl)amino)-4-methoxy-5-(4-(1-(phenylsulfonyl)azetidine-3-oxy)pyrimidine-2-amino)phenyl)acrylamide]	989	66	15	3.3	70	–	234	> 10000
C=CC(=O)Nc1cc(Nc2ncc(Cl)c(OC3CN(S(C)(=O)=O)C3)n2)c(OC)cc1N(C)CCN(C)C [Compound J-11, N-(5-(5-chloro-4-(1-(methylsulfonyl)azetidine-3-oxy)pyrimidine-2amino)-2-((2-(dimethylamino)ethyl)(methyl)amino)-4-methoxyphenyl)acrylamide]	1580	14	113	10	38	12	379	> 10000
C=CC(=O)Nc1cc(Nc2nccc(OC3CN(c4cccnc4)C3)n2)c(OC)cc1N(C)CCN(C)C [Compound J-17]	1880	121	15.5	1.2	129	8	155	> 10000
C=CC(=O)Nc1cc(Nc2nccc(OC3CN(c4cnc5c(ccn5C)c4)C3)n2)c(OC)cc1N1CCC(N(C)C)CC1 [Compound J-18]	2960	184	16.1	4.3	256	30	1100	–
C=CC(=O)Nc1cc(Nc2ncc(Cl)c(OC3CN(C(C)=O)C3)n2)c(OC)cc1N1CCC(N(C)C)CC1 [Compound J-27]	3050	57	53.6	85	30	114	2550	9830
C=CC(=O)Nc1cc(Nc2ncc(Cl)c(OC3CN(C(C)=O)C3)n2)c(OC)cc1N(C)CCN(C)C [Compound J-28]	3150	11	286.3	32.5	20	49	649	> 10000
C=CC(=O)Nc1cc(Nc2ncc(F)c(OC3CN(S(C)(=O)=O)C3)n2)c(OC)cc1N1CCC(N(C)C)CC1 [Compound J-29]	1100	17	64.5	7	23	6	156	> 10000
C=CC(=O)Nc1cc(Nc2ncc(F)c(OC3CN(C(C)=O)C3)n2)c(OC)cc1N1CCC(N(C)C)CC1 [Compound J-30]	6010	121	50	17	113	95	1910	> 10000
C=CC(=O)Nc1cc(Nc2ncc(C(F)(F)F)c(OC3CN(S(C)(=O)=O)C3)n2)c(OC)cc1N1CCC(N(C)C)CC1 [Compound J-31]	1720	4	429	84	5	27	419	> 3000
C=CC(=O)Nc1cc(Nc2ncc(Cl)c(OC3CCCN(C(C)=O)CC3)n2)c(OC)cc1N1CCC(N(C)C)CC1 (centres unmarked) [Compound J-35]	2900	35	82.8	57.2	52	80	2970	> 10000
C=CC(=O)Nc1cc(Nc2ncc(Cl)c(OC3CCCN(S(C)(=O)=O)CC3)n2)c(OC)cc1N1CCC(N(C)C)CC1 (centres unmarked) [Compound J-37]	2140	27	79.4	26	36	22	919	> 10000
C=CC(=O)Nc1cc(Nc2ncc(Cl)c(OC3CCN(C(C)=O)CC3)n2)c(OC)cc1N1CCC(N(C)C)CC1 [Compound J-38]	4670	66	71	60	75	170	4490	> 10000
C=CC(=O)Nc1cc(Nc2ncc(Cl)c(OC3CCN(S(C)(=O)=O)CC3)n2)c(OC)cc1N1CCC(N(C)C)CC1 [Compound J-39]	4300	72	60	11	123	39	1320	> 10000
C=CC(=O)Nc1cc(Nc2ncc(Cl)c(O[C@@H]3CCCN(S(C)(=O)=O)C3)n2)c(OC)cc1N(C)CCN(C)C [Compound J-40, (R)—N-(5-(5-chloro-4-(1-(methylsulfonyl)piperidine-3-oxy)pyrimidine-2-amino)-2-((2-(dimethylamino)ethyl)(methyl)amino)-4-methoxyphenyl)acrylamide]	2950	50	59	7.1	95	47	670	> 10000
C=CC(=O)Nc1cc(Nc2ncc(Cl)c(O[C@@H]3CCN(S(C)(=O)=O)C3)n2)c(OC)cc1N1CCC(N(C)C)CC1 [Compound J-45, (R)—N-(5-(5-chloro-4-(1-(methylsulfonyl)pyrrolidine-3-oxy)pyrimidine-2-amino)-2-(4-(dimethylamino)piperidine-1-yl)-4-methoxyphenyl)acrylamide]	2740	19	144.1	44	18	41	784	8200
C=CC(=O)Nc1cc(Nc2ncc(Cl)c(O[C@H]3CCN(S(C)(=O)=O)C3)n2)c(OC)cc1N1CCC(N(C)C)CC1 [Compound J-46]	2920	17	171.8	64	13	49	832	> 10000
C=CC(=O)Nc1cc(Nc2ncc(Cl)c(O[C@@H]3CCN(C(C)=O)C3)n2)c(OC)cc1N1CCC(N(C)C)CC1 [Compound J-47]	7380	46	160.5	28.2	97	227	2740	> 10000
C=CC(=O)Nc1cc(Nc2ncc(Cl)c(O[C@H]3CCN(C(C)=O)C3)n2)c(OC)cc1N1CCC(N(C)C)CC1 [Compound J-48]	4620	56	82.4	37.1	102	610	3790	> 10000
C=CC(=O)Nc1cc(Nc2ncc(F)c(SC3CN(S(C)(=O)=O)C3)n2)c(OC)cc1N1CCC(N(C)C)CC1 [Compound J-57]	534	7	76.3	4.5	11	4	49	> 10000
C=CC(=O)Nc1cc(Nc2nccc(C3CN(c4cnc5c(cnn5C)c4)C3)n2)c(OC)cc1N(C)CCN(C)C [compound 2, reference compound]	5060	359	14.1	1.3	1340	–	1760	–
